The source of these data is patent US20160060260A1, “BROMODOMAIN INHIBITORS FOR TREATING DISEASE” (Board of Regents, The University of Texas System, priority 2014, published 2016).

Structures are written as SMILES. Where only a bound is given, the exact number is not on record here.

For the assay, the target named is T1, Recombinant human His-tagged Trim24-PHD-bromodomain (Homo sapiens, UniProt O15164).
T1 construct: Recombinant human His-tagged Trim24-PHD-bromodomain (produced in-house); made in house
T1 sequence (O15164 824-1006 limits assumed): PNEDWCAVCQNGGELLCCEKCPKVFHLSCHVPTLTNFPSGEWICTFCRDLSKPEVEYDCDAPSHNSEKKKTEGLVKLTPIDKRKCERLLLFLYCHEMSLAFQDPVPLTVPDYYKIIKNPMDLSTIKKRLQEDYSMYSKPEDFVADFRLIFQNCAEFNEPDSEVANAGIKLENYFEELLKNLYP
Nature of the assay: Trim24 AlphaScreen Assay. The note with it: 5 nM Trim24 protein, 15 nM biotinylated H3K23ac (1-33aa) peptide. The format is binding. In outline:
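His-tagged Trim24-PHD-bromodomain, biotinylated H3K23ac (1-33aa) peptide and compound incubated 1 h at room temperature in 50 mM Hepes pH 7.5, 100 mM NaCl, 0.12 mM Triton X-100.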
A general note: Bead proximity is the source of the signal in Alpha formats.
In general, IC50 refers to the concentration that gives 50% inhibition. In the case of `CCCOc1cc(OCCCCCCN)cc(Oc2cc3c(cc2NS(=O)(=O)c2cccc(C(=O)OC)c2)n(C)c(=O)n3C)c1` [Example 191, methyl 3-(N-(6-(3-((6-aminohexyl)oxy)-5-propoxyphenoxy)-1,3-dimethyl-2-oxo-2,3-dihydro-1H-benzo[d]imidazol-5-yl)sulfamoyl)benzoate], the IC50 lay in the range of 10 to 100 nM.
The same measure for `CCCOc1cccc(Oc2cc3c(cc2NS(=O)(=O)c2cccc(OC/C=C/CCCN)c2)n(C)c(=O)n3C)c1` [Example 243, (E)-3-((6-aminohex-2-en-1-yl)oxy)-N-(1,3-dimethyl-2-oxo-6-(3-propoxyphenoxy)-2,3-dihydro-1H-benzo[d]imidazol-5-yl)benzenesulfonamide 2,2,2-trifluoroacetate]: 10 to 100 nM.
The same measure for `C=CCOc1cccc(S(=O)(=O)Nc2cc3c(cc2Oc2cccc(OCCC)c2)n(C)c(=O)n3C)c1` [Example 106, 3-(allyloxy)-N-(1,3-dimethyl-2-oxo-6-(3-propoxyphenoxy)-2,.3-dihydro-1H-benzo[d]imidazol-5-yl)benzenesulfonamide]: 100 to 1000 nM.
The same measure for `C=CCOc1cccc(Oc2cc3c(cc2NS(=O)(=O)c2ccc(OC)c(NC(C)=O)c2)n(C)c(=O)n3C)c1` [Example 143, N-(5-(N-(6-(3-(allyloxy)phenoxy)-1,3-dimethyl-2-oxo-2,3-dihydro-1H-benzo[d]imidazol-5-yl)sulfamoyl)-2-methoxyphenyl)acetamide]: 100 to 1000 nM.
As for `CC(C)COc1ccc(S(=O)(=O)Nc2cc3c(cc2Oc2cccc(OCc4ccccc4)c2)n(C)c(=O)n3C)cc1` [Example 16, N-(6-(3-(benzyloxy)phenoxy)-1,3-dimethyl-2-oxo-2,3-dihydro-1H-benzo[d]imidazol-5-yl)-4-isobutoxybenzenesulfonamide], the IC50 is above 1000 nM.
The same measure for `CCCOc1cc(Oc2cc3c(cc2NS(=O)(=O)c2cn(C)cn2)n(C)c(=O)n3C)ccc1OC` [Example 114, N-(6-(4-methoxy-5-propoxyphenoxy)-1,3-dimethyl-2-oxo-2,3-dihydro-1H-benzo[d]imidazol-5-yl)-1-methyl-1H-imidazole-4-sulfonamide]: above 1000 nM; for `COc1ccccc1S(=O)(=O)Nc1cc2c(cc1Oc1cccc(OCc3ccccc3)c1)n(C)c(=O)n2C` [Example 52, N-(6-(3-(benzyloxy)phenoxy)-1,3-dimethyl-2-oxo-2,3-dihydro-1H-benzo[d]imidazol-5-yl)-2-methoxybenzenesulfonamide]: 100 to 1000 nM; for `CCC(C)COc1cccc(Oc2cc3c(cc2NS(=O)(=O)c2cn(C)c(C)n2)n(C)c(=O)n3C)c1` (centres unmarked) [Example 62, N-(1,3-dimethyl-6-(3-(2-methylbutoxy)phenoxy)-2-oxo-2,3-dihydro-1H-benzo[d]imidazol-5-yl)-1,2-dimethyl-1H-imidazole-4-sulfonamide]: 100 to 1000 nM.
The same measure for `COCCS(=O)(=O)Nc1cc2c(cc1Oc1cccc(OCc3ccccc3)c1)n(C)c(=O)n2C` [Example 27, N-(6-(3-(benzyloxy)phenoxy)-1,3-dimethyl-2-oxo-2,3-dihydro-1H-benzo[d]imidazol-5-yl)-2-methoxyethane-1-sulfonamide]: above 1000 nM; for `COc1ccc(S(=O)(=O)Nc2cc3c(cc2Oc2ccc(F)c(OCC4CC4)c2)n(C)c(=O)n3C)cc1OC` [Example 131, N-(6-(3-(cyclopropylmethoxy)-4-fluorophenoxy)-1,3-dimethyl-2-oxo-2,3-dihydro-1H-benzo[d]imidazol-5-yl)-3,4-dimethoxybenzenesulfonamide]: 100 to 1000 nM; for `CCCOc1cccc(Oc2cc3c(cc2NS(=O)(=O)c2cc(C)nn2C)n(C)c(=O)n3C)c1` [Example 93, N-(1,3-dimethyl-2-oxo-6-(3-propoxyphenoxy)-2,3-dihydro-1H-benzo[d]imidazol-5-yl)-1,3-dimethyl-1H-pyrazole-5-sulfonamide]: 100 to 1000 nM.
